Here are results for six compounds from patent US10800789B2, “Antiviral compounds” (Gilead Pharmasset LLC, priority 2012, dated 2020).

Series [1] relates to Q30R in genotype 1a NS5A (1a Pi-Rluc replicon, Huh-7-derived cured-51 cells). The series is described as follows: Replicon assay against resistance mutant 1a Q30R. Type of series: cell-based, HCV. To be noted: Hepatitis C virus. In outline:
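Q30R introduced by site-directed mutagenesis into the 1a Pi-RLuc replicon; replicon RNA transiently transfected into cured-51 cells. Cells treated with 3-fold serially diluted compound for 72 h, then lysed and Renilla luciferase measured; EC50 by non-linear regression.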

The test system of series [2] is stable HCV 1a RLuc replicon cells (dicistronic genotype 1a H77 replicon). The series can be described thus: Renilla luciferase HCV replicon reporter assay, genotype 1a. To be noted: Hepatitis C virus, 72 h, stable 1a H77 RLuc replicon cells. It is filed as cell-based. In outline:
(§1)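 72 h compound exposure (3-fold dilutions from 10 mM DMSO stocks) of replicon cells: stable dicistronic RLuc 1a H77, 1b Con1, 2a JFH-1 (NS5A L31); J6-NS5A chimera in JFH-1 (M31), transient in Huh-Lunet or stable. Renilla luciferase read-out, non-linear regression → EC50. DMSO negative control.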

Series [3] concerns NS5A chimeric genotype 1b Con1 replicon with genotype 3a S52 strain NS5A gene. The series is described as follows: Replicon assay, genotype 3a NS5A chimera. Type of series: cell-based, HCV.
For series [4], the system named is NS5A chimeric genotype 1b Con1 replicon with genotype 4a ED43 strain NS5A gene. The series is described as follows: Replicon assay, genotype 4a NS5A chimera. It is filed as cell-based, HCV. To be noted: Hepatitis C virus.
In series [5] the test system is stable HCV 1b RLuc replicon cells (dicistronic genotype 1b Con1 replicon). The series can be described thus: Renilla luciferase HCV replicon reporter assay, genotype 1b. It is filed as cell-based. To be noted: Hepatitis C virus, 72 h, stable 1b Con1 RLuc replicon cells, 72 hours; read-out: 1b. The method in brief:
as §1

The test system of series [6] is NS5A chimeric genotype 2a JFH-1 replicon with genotype 2a J6 strain NS5A gene (M31 present). The series can be described thus: Replicon assay, genotype 2a J6 NS5A chimera. It is filed as cell-based, HCV. The method in brief:
as §1

Series [7] has as its system NS5A chimeric genotype 2a JFH-1 replicon with genotype 2b MD2b-1 strain NS5A gene (M31 present). The series can be described thus: Replicon assay, genotype 2b NS5A chimera. Type of series: cell-based, HCV. In outline:
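EC50 was fitted by non-linear regression to Renilla luciferase signal after 72 h of exposure to 3-fold serially diluted compound (10 mM DMSO stocks). Controls were DMSO (none) and ITMN-191 above 100×EC50 (full). Chimeric 2a replicons were used either stable or transiently transfected into Huh-Lunet cells.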

Series [8] is described as follows: IV and PO single dose pharmacokinetic studies in SD rats. Type of series: in vivo, male Sprague-Dawley (SD) rats. To be noted: Sprague-Dawley, rat, plasma, male SD rats, PO 2 mg/kg vs IV infusion 1 mg/kg, read-out: Rat % F. The method in brief: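 Fasted male Sprague-Dawley rats (250-300g, n=3/group) were given 1 mg/kg IV as a 30-min jugular infusion (5% ethanol/35% PEG 400/water pH 2.0) or 2 mg/kg by oral gavage (5% ethanol/55% PEG 400/citrate pH 2.2). Plasma was sampled to 24 h and analysed by LC/MS/MS. Non-compartmental parameters were derived, and %F was calculated from the oral/IV AUC ratio.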

Series [9] has as its system stable HCV 2a JFH-1 Rluc replicon cells (L31 present in NS5A). The series can be described thus: Renilla luciferase HCV replicon reporter assay, genotype 2a JFH-1. It is filed as cell-based. In outline:
as §1

[10] abbreviates: read-out: 4a (s) (nM), genotype 4a NS5A chimeric replicon, stable replicon cells (s).
The mark [11] stands for this setting: read-out: 4a (s), (s), activity range.
The mark [12] stands for this setting: Hepatitis C virus, read-out: 2a JFH, stable 2a JFH-1 Rluc replicon cells, L31 in NS5A, activity range.
[13] abbreviates: Hepatitis C virus, read-out: 3a (s) (nM), genotype 3a NS5A chimeric replicon, stable replicon cells (s).
Setting [14] is: Hepatitis C virus, read-out: 3a (s), (s), activity range.
[15] abbreviates: Hepatitis C virus, 2BS, read-out: 2b (s), stably replicating replicon cells (s), activity range.
The mark [16] stands for this setting: Hepatitis C virus, read-out: 2b (s) (nM), genotype 2b MD2b-1 NS5A chimeric replicon (M31), stably replicating replicon cells (s).
[17] abbreviates: Hepatitis C virus, read-out: 2b (t) (nM), genotype 2b MD2b-1 NS5A chimeric replicon (M31), transiently transfected (t).
Setting [18] is: Hepatitis C virus, read-out: 2b (t), transiently transfected (t) into Huh-Lunet cells, activity range.
The mark [19] stands for this setting: Hepatitis C virus, read-out: 2a JFH (nM), genotype 2a JFH-1 replicon (L31 in NS5A), stable cells.

Read-outs that look alike come from different tables or passages of the source.

In the case of `COC[C@H]1C[C@@H](c2nc(C3CC3)c(-c3ccc4c(c3)COc3cc5c(ccc6nc([C@@H]7CC[C@H](C)N7C(=O)[C@@H](NC(=O)OC)C(C)C)[nH]c65)cc3-4)[nH]2)N(C(=O)[C@H](NC(=O)OC)c2ccccc2)C1` [FZ, Methyl {(1R)-2-[(2S,4S)-2-(4-cyclopropyl-5-{2-[(2S,5S)-1-{(2S)-2-[(methoxycarbonyl)amino]-3-methylbutanoyl}-5-methylpyrrolidin-2-yl]-1,11-dihydroisochromeno[4′,3′:6,7]naphtho[1,2-d]imidazol-9-yl}-1H-imidazol-2-yl)-4-(methoxymethyl)pyrrolidin-1-yl]-2-oxo-1-phenylethyl}carbamate], the EC50 in series [1] (read-out: 1a Q30R) is less than 0.1 nM; in [1] (read-out: 1a Q30R (nM)) it was 0.048 nM; in [2] it was 0.019 nM; in series [2] (activity range) it was less than 0.1 nM; in series [3] (read-out: 3a (s), (s), activity range), less than 0.1 nM; in series [3] (read-out: 3a (s), genotype 3a NS5A chimeric replicon, stable replicon cells (s)), 0.098 nM. The EC50 in series [4] (setting [10]) is 0.025 nM; in series [4] (setting [11]), less than 0.1 nM; in series [5] it was 0.031 nM; in series [6] (read-out: 2a J6 (t), genotype 2a J6 NS5A chimeric replicon (M31), transiently transfected (t) into Huh-Lunet cells) it was 0.041 nM; in [6] (read-out: 2a J6 (t), transiently transfected (t) into Huh-Lunet cells, activity range), less than 0.1 nM; in series [7] (read-out: 2b (s), genotype 2b MD2b-1 NS5A chimeric replicon (M31), stably replicating replicon cells (s)), 0.101 nM. In addition, the EC50 is 0.1 to 0.999 nM in [7] (read-out: 2b (s), stably replicating replicon cells (s), activity range); less than 0.1 nM in series [9] (setting [12]); 0.025 nM in [9] (read-out: 2a JFH, genotype 2a JFH-1 replicon (L31 in NS5A), stable cells). Moreover, in [8], the bioavailability is 18.5%.

In the case of `CC[C@H]1CC[C@@H](c2ncc(-c3ccc4c(c3)COc3cc5c(ccc6nc([C@@H]7CC[C@H](C)N7C(=O)[C@@H](NC(=O)OC)C7CCOCC7)[nH]c65)cc3-4)[nH]2)N1C(=O)[C@@H](NC(=O)OC)C(C)C` [EN, methyl[(1 S)-2-[(2S,5S)-2-(9-{2-[(2S,5S)-5-ethyl-1-{(2S)-2 [(methoxycarbonyl)amino]-3-methylbutanoyl}pyrrolidin-2-yl]-1H-imidazol-5-yl}-1,11 dihydroisochromeno[4′,3′:6,7]naphtho[1,2-d]imidazol-2-yl)-5-methylpyrrolidin-1-yl]-2-oxo-1(tetrahydro-2H-pyran-4-yl)ethyl]carbamate], the EC50 in series [1] (read-out: 1a Q30R) is less than 0.1 nM; in series [1] (read-out: 1a Q30R (nM)), 0.043 nM; in series [2], 0.018 nM; in series [2] (activity range) it was less than 0.1 nM; in series [3] (setting [13]), 0.061 nM; in series [3] (setting [14]), less than 0.1 nM. In addition, the EC50 in series [5] was 0.034 nM; in series [7] (setting [15]) it was less than 0.1 nM; in series [7] (setting [16]), 0.095 nM; in [7] (setting [17]) it was 0.052 nM; in series [7] (setting [18]), less than 0.1 nM; in [9] (setting [19]), 0.015 nM. In addition, the EC50 in series [9] (setting [12]) is less than 0.1 nM. Also, the bioavailability in [8] worked out at 29.9%.

As for `COC(=O)NC(C(=O)N1[C@@H](C)CC[C@H]1c1nc2ccc3cc4c(cc3c2[nH]1)OCc1cc(-c2cnc([C@@H]3CC[C@H](C)N3C(=O)[C@@H](NC(=O)OC)C3CCOCC3)[nH]2)ccc1-4)C1CCOCC1` (stereo partly drawn) [EB, Methyl [(1 S)-2-[(2S,5S)-2-(5-{2-[(2S,5S)-1-{[(methoxycarbonyl)amino](tetrahydro-2H-pyran-4-yl)acetyl}-5-methylpyrrolidin-2-yl]-1,11-dihydroisochromeno[4′,3′:6,7]naphtho[1,2-d]imidazol-9-yl}-1H-imidazol-2-yl)-5-methylpyrrolidin-1-yl]-2-oxo-1-(tetrahydro-2H-pyran-4-yl)ethyl]carbamate], the EC50 in series [1] (read-out: 1a Q30R) is less than 0.1 nM; in series [1] (read-out: 1a Q30R (nM)) it was 0.042 nM; in series [2] it was 0.024 nM; in series [2] (activity range) it was less than 0.1 nM; in series [3] (setting [13]), 0.075 nM; in series [3] (setting [14]), less than 0.1 nM. The EC50 is 0.014 nM in series [4] (setting [10]); less than 0.1 nM in [4] (setting [11]); 0.051 nM in series [5]; 0.012 nM in [6] (Hepatitis C virus, read-out: 2a J6 (t) (nM), genotype 2a J6 NS5A chimeric replicon (M31), transiently transfected (t) into Huh-Lunet cells); less than 0.1 nM in series [6] (Hepatitis C virus, read-out: 2a J6 (t), transiently transfected (t) into Huh-Lunet cells, activity range); less than 0.1 nM in series [7] (setting [15]). In addition, the EC50 in [7] (setting [16]) is 0.038 nM; in series [7] (setting [17]), 0.092 nM; in series [7] (setting [18]), less than 0.1 nM; in [9] (setting [19]), 0.012 nM; in series [9] (setting [12]) it was less than 0.1 nM. In series [8], the bioavailability is 4.2%.

As for `CC[C@H](C)[C@H](NC(=O)OC)C(=O)N1[C@H](c2ncc(-c3ccc4c(c3)COc3cc5c(ccc6nc([C@@H]7CC[C@H](C)N7C(=O)[C@@H](NC(=O)OC)C7CCOCC7)[nH]c65)cc3-4)[nH]2)C[C@@H]2CCC[C@@H]21` [IL], the EC50 was less than 0.1 nM in series [1] (read-out: 1a Q30R); 0.028 nM in series [2]; less than 0.1 nM in [2] (activity range); 0.083 nM in series [3] (setting [13]); less than 0.1 nM in series [3] (setting [14]); 0.04 nM in series [4] (setting [10]). The EC50 is less than 0.1 nM in [4] (setting [11]); 0.034 nM in series [5]; 0.1 to 0.999 nM in series [7] (setting [15]); 0.143 nM in series [7] (setting [16]); 0.025 nM in [7] (setting [17]); 0.019 nM in series [9] (setting [19]). The EC50 in series [9] (setting [12]) is less than 0.1 nM. The bioavailability in [8] worked out at 40.9%.

With `CC[C@H](C)[C@H](NC(=O)OC)C(=O)N1[C@@H](C)CC[C@H]1c1nc2ccc3cc4c(cc3c2[nH]1)OCc1cc(-c2cnc([C@@H]3CC[C@H](C)N3C(=O)[C@@H](NC(=O)OC)C3CCOCC3)[nH]2)ccc1-4` [FQ, Methyl [(1 S)-2-[(2S,5S)-2-(5-{2-[(2S,5S)-1-{(2S,3S)-2-[(methoxycarbonyl)amino]-3-methylpentanoyl}-5-methylpyrrolidin-2-yl]-1,11-dihydroisochromeno[4′,3′:6,7]naphtho[1,2-d]imidazol-9-yl}-1H-imidazol-2-yl)-5-methylpyrrolidin-1-yl]-2-oxo-1-(tetrahydro-2H-pyran-4-yl)ethyl]carbamate], the EC50 in series [1] (read-out: 1a Q30R) is less than 0.1 nM; in series [1] (read-out: 1a Q30R (nM)), 0.097 nM; in series [2], 0.012 nM; in [2] (activity range), less than 0.1 nM; in series [3] (setting [13]), 0.02 nM; in series [3] (setting [14]), less than 0.1 nM. In addition, the EC50 in [5] was 0.019 nM; in series [7] (setting [15]) it was less than 0.1 nM; in [7] (setting [16]), 0.066 nM; in series [9] (setting [19]), 0.01 nM; in series [9] (setting [12]), less than 0.1 nM. For the same compound, the bioavailability in series [8] is 17.7%.

As to `COC(=O)N[C@H](C(=O)N1[C@@H](C)CC[C@H]1c1ncc(-c2ccc3c(c2)COc2cc4c(ccc5nc([C@@H]6C[C@H](COC(F)F)CN6C(=O)[C@@H](NC(=O)OC)[C@@H](C)OC)[nH]c54)cc2-3)[nH]1)C(C)C` [FO], the EC50 in series [1] (read-out: 1a Q30R) was 0.1 to 0.999 nM; in series [1] (read-out: 1a Q30R (nM)), 0.112 nM; in [2], 0.01 nM; in [2] (activity range) it was less than 0.1 nM; in series [3] (setting [13]) it was 0.055 nM; in series [3] (setting [14]), less than 0.1 nM. The EC50 in series [4] (setting [10]) is 0.007 nM; in series [4] (setting [11]) it was less than 0.1 nM; in series [5], 0.009 nM; in [7] (setting [15]), 0.1 to 0.999 nM; in series [7] (setting [16]), 0.164 nM; in series [9] (setting [19]), 0.008 nM. Further, in series [9] (setting [12]), the EC50 was less than 0.1 nM. Moreover, in [8], the bioavailability amounted to 17.2%.
